From patent publication US20210186905A1, “ENHANCING T-CELL FUNCTION AND TREATING A T-CELL DYSFUNCTIONAL DISORDER WITH A COMBINATION OF AN LSD INHIBITOR AND A PD-1 BINDING ANTAGONIST” (EpiAxis Therapeutic Pty Ltd, priority 2017, published 2021)
Where a name gives a salt, the structure may show the parent alone.

Assays:
LSD1 and EOMES = molecular target: T1, LSD1 and EOMES (Mus musculus, UniProt Q6ZQ88); assay: Immunofluorescence co-expression and co-localization of LSD1 and EOMES in CD8+ T-cells; type: in vivo
T1 construct: CD8^+ T-cells isolated from the 4T1 metastatic xenograft mouse model; endogenous in cells; host or cells: CD8+ T-cells isolated from the tumour micro-environment of treated 4T1 mice
Description: FIG. 6 is a graphical and photographic representation depicting nuclear LSD1 complexes with EOMES in exhausted T-cell signatures. A. Nanostring transcript analysis was performed on isolated CD8^+ T-cells isolated from a 4T1 metastatic cancer mouse model treated with either Group A=Control, Group C: PD1 (10 mg/kg), Group D: Phenelzine (40 mg/kg), or Group F: PD1+Phenelzine. […] B. Immunofluorescence microscopy was performed on CD8^+ T-cells fixed and probed with primary anti-LSD1, anti-EOMES and anti-CD8 antibodies and DAPI. Representative images for each dataset are shown. […] C. […] Plot-profiles were plotted with the use of ImageJ software measuring a series of fluorescent intensities along a line spanning the nucleus. The pattern of the two plots can give an insight into the nature of the relationship between the two fluorochromes. Imagej software with automatic thresholding and manual selection ? for nucleus of cells was used to calculate the Pearson's co ? (PCC) for each pair of antibodies. The PCC Values range from −1=inverse of co-localization, 0=no co-localization, +1=perfect co-localization.
To unravel this role, the present inventors examined the co-expression of LSD1 and EOMES (an exhaustion marker) in CD8^+ T-cells isolated from the 4T1 metastatic xenograft mouse model.
This negative co-localization was unaffected by treatment with PD1 or LSD1 inhibitors (FIG. 7).
A total of 2×10^5 cells were injected per mouse into mammary gland in 50 μL of phosphate buffered saline (PBS). Treatments were started on mice after 15 days post-inoculation of 4T1 cells. […] Tumors were measured using calipers and the tumor volumes (mm3) were calculated using the formula (length×width2)/2. ? arvested cells from primary tumors where then cytospun ? -treated with poly-1-lysine and fixed then stored in PBS for IFA Microscopy Analysis. […] Digital images were analysed using ImageJ software (ImageJ, NIH, Bethesda, Md., USA) to determine the either the Total Nuclear Fluorescent Intensity (TNFI), the Total Cytoplasmic Fluorescent Intensity (TCFI) or total Fluorescent Intensity (TFI).

CD4+ and CD8+ T-cells = assay: Flow cytometry, intracellular staining of IFN-γ, IL-2 and TNF-α after PMA/ionomycin; type: in vivo, mouse
Description: FIG. 5 is a graphical representation showing that dual epigenetic-immunotherapy re-educates and re-programs the T-cell repertoire. A. Cells stimulated with PMA/ionomycin for 4 hours in the presence of Brefeldin A. Cells were surfaced stained with CD45, CD3, CD4, CD8, CD44, CD62L (for naïve, effector and central memory), CD25 and FoxP3 (for Tregs) and analyzed via Flow cytometry. A Mann-Whitney non-parametric t-test was used to compare control vs other groups (*p<0.05, n=2-5). […] Representative images for each dataset are shown. TNFI values for EOMES, TBET and Ki67 measured using Image) to select the nucleus minus background. Graphs represent the % change of expression relative to control group for CD8^+ T-cells. (n>20 individual cells, Group A=Control, Group C: PD1 (10 mg/kg), Group D: Phenelzine (40 mg/kg), Group F: PD1+Phenelzine). C. Cells stimulated with PMA/ionomycin for 4 hours in the presence of Brefeldin A. Cell were surfaced stained with CD45, CD3, CD4, CD8 and intracellular staining of IFN-γ, IL-2 and TNF-α in the presence of Brefeldin A and analyzed via flow cytometry. A Mann-Whitney non-parametric t-test was used to compare control vs other groups (*p<0.05, **p<0.008; n=2-5). […] Representative images for each dataset are shown. TNFI values for TNFα and IFNγ measured using ImageJ to select the nucleus minus background. Graphs represent the % change of expression relative to control group for CD8^+ T-cells. […]
Cells were surfaced stained with CD49b, F4/80 and intracellular stained for IFN-γ, TNF-α and IL-10. To label NK cells and the macrophages (M1/M2) in the tumor microenvironment or a suite of antibodies to label CD8^+ T-Cells (Cells were surfaced stained with CD45, CD3, CD4, CD8, CD44, CD62L (for naïve, effector and central memory). Cells were finally resuspended in PBS 2% FBS and flow cytometry performed on FACS Fortessa (BD) or FACS LSRII (BD). Analysis of data was done using FlowJo® analysis software and % cell populations calculated from the raw data. A Mann-Whitney non-parametric t-test was used to compare control vs other groups.

- EOMES expression (LSD1 and EOMES; CD8+ T-cells, nuclear TNFI): marked inhibition
- LSD1 expression (LSD1 and EOMES; CD8+ T-cells, nuclear TNFI): marked inhibition
- LSD1/EOMES nuclear protein complex (co-localization, plot-profiles and PCC) (LSD1 and EOMES; nucleus of exhausted CD8+ T-cells): markedly inhibited
Compound: NNCCc1ccccc1 (racemic) [phenelzine sulfate, (±)-2-phenylethylhydrazine]
- IL-2 production by CD4+ T-cells (CD4+ and CD8+ T-cells; CD4+ T-cells): much more efficient
- pro-inflammatory/Th1 response (IFN-γ, IL-2 and TNF-α) (CD4+ and CD8+ T-cells; CD4+ and CD8+ T-cells, compared to the control): better pro-inflammatory/Th1 response
- production of these cytokines (IFN-γ, IL-2, TNF-α) (CD4+ and CD8+ T-cells; as compared to the control): seems to increase
